A word on the Kd: it is the concentration at which binding is half-saturated. Read a low Kd as higher affinity.

In the test the target is T1, UDP-3-O-acyl-N-acetylglucosamine deacetylase (Aquifex aeolicus (strain VF5), UniProt O67648).
T1 sequence (O67648 whole entry): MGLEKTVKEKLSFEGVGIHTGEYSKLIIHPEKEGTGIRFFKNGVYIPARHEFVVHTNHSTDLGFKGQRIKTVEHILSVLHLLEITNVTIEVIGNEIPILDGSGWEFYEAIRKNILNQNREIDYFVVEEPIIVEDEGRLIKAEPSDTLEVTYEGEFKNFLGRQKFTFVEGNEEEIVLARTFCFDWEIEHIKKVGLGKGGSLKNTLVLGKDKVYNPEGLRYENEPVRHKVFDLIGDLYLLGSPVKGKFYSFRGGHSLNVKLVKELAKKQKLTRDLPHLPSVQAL
The test is described as follows: Ligand Affinity Measurements. The note with it: pH 7; 30 °C. Here is the method: Ligand binding to A. aeolicus LpxC was assayed by isothermal titration using isothermal microcalorimeter from Microcal, Inc. (Northampton, MA). The enzyme was stripped of all metal ions, and was reconstituted with Zn2+ (1:1 ratio) by the addition of ZnSO4. The calorimeter cell contained enzyme (40 or 60 uM), and the syringe contained ligand (250 or 400 uM). A series of 30 injections of 8 ul each were performed at 180-s intervals. Titrations of aliphatic compounds into buffer were also performed as control experiments using identical conditions. Data were fit to a single binding site model using Origin v. 2.9.
With `CCCCCCCC(=O)O` [octanoic acid], the Kd is more than 100 µM. The value for `CCCCCCCCCCCC(=O)O` [dodecanoate] was 0.9 µM. Regarding `CCCCCCCCCC(=O)O` [decanoate], the Kd came to 7 µM.

For the origin of these results see BindingDB's records for doi:10.1016/j.bmc.2007.01.044 (University of San Francisco, 2007).
